# Measured values from ChEMBL document CHEMBL3885861, “Open TG-GATES”.
# Species on record: Rattus norvegicus
# Assay: Open TG-GATES - Regimen: Single
# Format: toxicity, organism-based, Sprague-Dawley
# Parameters: regimen Single, gender Male, age 6 weeks
# Conditions: in vivo, po, route gavage; for TP / gamma-GTP / A/G / ALP / ALT / AST / BUN / CRE / Ca / Cl / GLC / IP / K / LDH / Na / PL / RALB / TC / TG: tissue Plasma; for APTT / Bas / Eos / Fbg / Hb / Ht / Lym / MCH / MCHC / MCV / Mono / Neu / PT / Plat / RBC / Ret / WBC: tissue Blood; for KIDNEY_L / KIDNEY_R / KIDNEY_TOTAL: tissue Kidney; for LIVER: tissue Liver
# [1] = 1000 mg/kg, 24 h, dose level Middle
# [2] = 2000 mg/kg, 3 h, dose level High
# [3] = 2000 mg/kg, 6 h, dose level High
# [4] = 2000 mg/kg, 9 h, dose level High
# [5] = 2000 mg/kg, 24 h, dose level High
structure (smiles),measurement,setting,value
O=C(O)c1ccccc1Nc1ccccc1 [FENAMIC ACID],TP,[1],5.6 g/dL
same,gamma-GTP,[1],1 IU/L
same,TERMINAL_BW,[2],207.1 g
same,APTT,[2],15.4 s
same,Bas,[2],0.8%
same,Eos,[2],0.8%
same,Fbg,[2],258.2 mg/dL
same,Hb,[2],13.6 g/dL
same,Ht,[2],39.9%
same,Lym,[2],67.4%
same,MCH,[2],20.6 pg
same,MCHC,[2],34.1%
same,MCV,[2],60.6 fL
same,Mono,[2],3.2%
same,Neu,[2],28%
same,PT,[2],13.9 s
same,Plat,[2],113.5 x10_4/uL
same,RBC,[2],658.8 x10_4/ul
same,Ret,[2],7.9%
same,WBC,[2],76.3 x10_2/uL
same,KIDNEY_L,[2],0.9 g
same,KIDNEY_R,[2],0.9 g
same,KIDNEY_TOTAL,[2],1.9 g
same,LIVER,[2],7.7 g
same,A/G,[2],0.9
same,ALP,[2],1464.2 IU/L
same,ALT,[2],41 IU/L
same,AST,[2],75.6 IU/L
same,BUN,[2],10.8 mg/dL
same,CRE,[2],0.1 mg/dL
same,Ca,[2],10.9 mg/dL
same,Cl,[2],102.8 meq/L
same,GLC,[2],181.8 mg/dL
same,IP,[2],10.9 mg/dL
same,K,[2],4.1 meq/L
same,LDH,[2],88.2 IU/L
same,Na,[2],143.4 meq/L
same,PL,[2],93.4 mg/dL
same,RALB,[2],2.6 g/dL
same,TC,[2],52 mg/dL
same,TG,[2],28.4 mg/dL
same,TP,[2],5.5 g/dL
same,gamma-GTP,[2],1.2 IU/L
same,TERMINAL_BW,[3],206.9 g
same,APTT,[3],15.5 s
same,Bas,[3],0.8%
same,Eos,[3],1%
same,Fbg,[3],277.4 mg/dL
same,Hb,[3],13.7 g/dL
same,Ht,[3],40.6%
same,Lym,[3],71.2%
same,MCH,[3],21 pg
same,MCHC,[3],33.6%
same,MCV,[3],62.6 fL
same,Mono,[3],3%
same,Neu,[3],24%
same,PT,[3],14.2 s
same,Plat,[3],122.7 x10_4/uL
same,RBC,[3],649.2 x10_4/ul
same,Ret,[3],8.1%
same,WBC,[3],106.2 x10_2/uL
same,KIDNEY_L,[3],1 g
same,KIDNEY_R,[3],1 g
same,KIDNEY_TOTAL,[3],2 g
same,LIVER,[3],7.4 g
same,A/G,[3],0.9
same,ALP,[3],1541.4 IU/L
same,ALT,[3],36.4 IU/L
same,AST,[3],76.2 IU/L
same,BUN,[3],12 mg/dL
same,CRE,[3],0.1 mg/dL
same,Ca,[3],11.2 mg/dL
same,Cl,[3],105.6 meq/L
same,GLC,[3],133.2 mg/dL
same,IP,[3],11.6 mg/dL
same,K,[3],4 meq/L
same,LDH,[3],92.8 IU/L
same,Na,[3],145.4 meq/L
same,PL,[3],105.2 mg/dL
same,RALB,[3],2.6 g/dL
same,TC,[3],49.8 mg/dL
same,TG,[3],34.2 mg/dL
same,TP,[3],5.6 g/dL
same,gamma-GTP,[3],1 IU/L
same,TERMINAL_BW,[4],209.9 g
same,APTT,[4],21.5 s
same,Bas,[4],0.6%
same,Eos,[4],1%
same,Fbg,[4],307.4 mg/dL
same,Hb,[4],13.6 g/dL
same,Ht,[4],39.9%
same,Lym,[4],64.6%
same,MCH,[4],20.7 pg
same,MCHC,[4],34%
same,MCV,[4],60.8 fL
same,Mono,[4],3.2%
same,Neu,[4],30.4%
same,PT,[4],14.8 s
same,Plat,[4],110.5 x10_4/uL
same,RBC,[4],656.8 x10_4/ul
same,Ret,[4],8.2%
same,WBC,[4],93.3 x10_2/uL
same,KIDNEY_L,[4],1 g
same,KIDNEY_R,[4],0.9 g
same,KIDNEY_TOTAL,[4],1.9 g
same,LIVER,[4],7.5 g
same,A/G,[4],0.9
same,ALP,[4],1863.4 IU/L
same,ALT,[4],41.8 IU/L
same,AST,[4],82.2 IU/L
same,BUN,[4],14.6 mg/dL
same,CRE,[4],0.1 mg/dL
same,Ca,[4],11.1 mg/dL
same,Cl,[4],105.6 meq/L
same,GLC,[4],144.6 mg/dL
same,IP,[4],11.3 mg/dL
same,K,[4],3.9 meq/L
same,LDH,[4],80.8 IU/L
same,Na,[4],145.6 meq/L
same,PL,[4],105.8 mg/dL
same,RALB,[4],2.7 g/dL
same,TC,[4],45 mg/dL
same,TG,[4],50.2 mg/dL
same,TP,[4],5.7 g/dL
same,gamma-GTP,[4],1 IU/L
same,TERMINAL_BW,[5],211.9 g
same,APTT,[5],15.6 s
same,Bas,[5],1%
same,Eos,[5],0.6%
same,Fbg,[5],436 mg/dL
same,Hb,[5],13.9 g/dL
same,Ht,[5],40.7%
same,Lym,[5],55.8%
same,MCH,[5],20.5 pg
same,MCHC,[5],34.1%
same,MCV,[5],60.2 fL
same,Mono,[5],3.4%
same,Neu,[5],39%
same,PT,[5],15.2 s
same,Plat,[5],121.1 x10_4/uL
same,RBC,[5],675.2 x10_4/ul
same,Ret,[5],8.7%
same,WBC,[5],138 x10_2/uL
same,KIDNEY_L,[5],1 g
same,KIDNEY_R,[5],1 g
same,KIDNEY_TOTAL,[5],2 g
same,LIVER,[5],8.4 g
same,A/G,[5],0.8
same,ALP,[5],2104 IU/L
same,ALT,[5],41.6 IU/L
same,AST,[5],62.2 IU/L
same,BUN,[5],19.2 mg/dL
same,CRE,[5],0.1 mg/dL
same,Ca,[5],11.2 mg/dL
same,Cl,[5],102.8 meq/L
same,GLC,[5],145.8 mg/dL
same,IP,[5],9.4 mg/dL
same,K,[5],3.7 meq/L
same,LDH,[5],131.8 IU/L
same,Na,[5],141.2 meq/L
same,PL,[5],91.4 mg/dL
same,RALB,[5],2.6 g/dL
same,TC,[5],38.2 mg/dL
same,TG,[5],49.2 mg/dL
same,TP,[5],5.7 g/dL
same,gamma-GTP,[5],1 IU/L
